Laboratory results: PubChem BioAssay AID1963830 (Molecular Pharmacology Branch, DTP, NCI, 2024)

Test system: 922993-354-T-J3-PDC complex spheroid viability
Assay: Anticancer human tumor 922993-354-T-J3-PDC patient-derived endometrial carcinoma cell line growth inhibition [POLQ]
Settings: for IC50: curve of first compound; for viability, T/C: stronger effect = lower value
Outline: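 Growth inhibition in 3D: complex spheroids (tumor PDC, HUVEC, MSC) treated with POLQ inhibitor combinations; where Cmax unknown, highest tested concentration 10 microM, except SN-38 at 1 microM.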

[1] = second compound 0.0316 µM, first compound 0.00316 µM
[2] = second compound 0.0316 µM, first compound 0.01 µM
[3] = second compound 0.0316 µM, first compound 0.0316 µM
[4] = second compound 0.0316 µM, first compound 0.1 µM
[5] = second compound 0.0316 µM, first compound 0.316 µM
[6] = second compound 0.0316 µM, first compound 1 µM
[7] = second compound 0.1 µM, first compound 0.00316 µM
[8] = second compound 0.1 µM, first compound 0.01 µM
[9] = second compound 0.1 µM, first compound 0.0316 µM
[10] = second compound 0.1 µM, first compound 0.1 µM
[11] = second compound 0.1 µM, first compound 0.316 µM
[12] = second compound 0.1 µM, first compound 1 µM
[13] = second compound 0.316 µM, first compound 0.00316 µM
[14] = second compound 0.316 µM, first compound 0.01 µM
[15] = second compound 0.316 µM, first compound 0.0316 µM
[16] = second compound 0.316 µM, first compound 0.1 µM
[17] = second compound 0.316 µM, first compound 0.316 µM
[18] = second compound 0.316 µM, first compound 1 µM
[19] = second compound 1 µM, first compound 0.00316 µM
[20] = second compound 1 µM, first compound 0.01 µM
[21] = second compound 1 µM, first compound 0.0316 µM
[22] = second compound 1 µM, first compound 0.1 µM
[23] = second compound 1 µM, first compound 0.316 µM
[24] = second compound 1 µM, first compound 1 µM
[25] = second compound 3.16 µM, first compound 0.00316 µM
[26] = second compound 3.16 µM, first compound 0.01 µM
[27] = second compound 3.16 µM, first compound 0.0316 µM
[28] = second compound 3.16 µM, first compound 0.1 µM
[29] = second compound 3.16 µM, first compound 0.316 µM
[30] = second compound 3.16 µM, first compound 1 µM
[31] = second compound 10 µM, first compound 0.00316 µM
[32] = second compound 10 µM, first compound 0.01 µM
[33] = second compound 10 µM, first compound 0.0316 µM
[34] = second compound 10 µM, first compound 0.1 µM
[35] = second compound 10 µM, first compound 0.316 µM
[36] = second compound 10 µM, first compound 1 µM
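Note: spheroids exposed to the agents for one week.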
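Throughout, for viability, T/C: 100% = DMSO vehicle control wells.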

SMILES: C=CCn1c(=O)c2cnc(Nc3ccc(N4CCN(C)CC4)cc3)nc2n1-c1cccc(C(C)(C)O)n1 + Cc1cccc(N(C)C(=O)C2C(O)CCN2c2nc(C)cc(C(F)(F)F)c2C#N)c1
- IC50 (second compound 0.0316 µM): > 1000 nM
- IC50 (second compound 0.1 µM): > 1000 nM
- IC50 (second compound 0.316 µM): > 1000 nM
- IC50 (second compound 1 µM): > 1000 nM
- IC50 (second compound 3.16 µM): > 1000 nM
- IC50 (second compound 10 µM): > 1000 nM
- viability, T/C [1]: 101%
- viability, T/C [2]: 105%
- viability, T/C [3]: 102%
- viability, T/C [4]: 101%
- viability, T/C [5]: 105%
- viability, T/C [6]: 102%
- viability, T/C [7]: 105%
- viability, T/C [8]: 104%
- viability, T/C [9]: 99.5%
- viability, T/C [10]: 103%
- viability, T/C [11]: 105%
- viability, T/C [12]: 101%
- viability, T/C [13]: 103%
- viability, T/C [14]: 106%
- viability, T/C [15]: 98.1%
- viability, T/C [16]: 104%
- viability, T/C [17]: 104%
- viability, T/C [18]: 103%
- viability, T/C [19]: 105%
- viability, T/C [20]: 101%
- viability, T/C [21]: 106%
- viability, T/C [22]: 99.1%
- viability, T/C [23]: 104%
- viability, T/C [24]: 104%
- viability, T/C [25]: 99.9%
- viability, T/C [26]: 101%
- viability, T/C [27]: 100%
- viability, T/C [28]: 101%
- viability, T/C [29]: 104%
- viability, T/C [30]: 99%
- viability, T/C [31]: 103%
- viability, T/C [32]: 97.1%
- viability, T/C [33]: 98.5%
- viability, T/C [34]: 97.3%
- viability, T/C [35]: 103%
- viability, T/C [36]: 94.2%

SMILES: CCc1c2c(nc3ccc(O)cc13)-c1cc3c(c(=O)n1C2)COC(=O)[C@]3(O)CC + Cc1cccc(N(C)C(=O)C2C(O)CCN2c2nc(C)cc(C(F)(F)F)c2C#N)c1
- IC50 (second compound 0.0316 µM): 11.6 nM
- IC50 (second compound 0.1 µM): 14.3 nM
- IC50 (second compound 0.316 µM): 14.2 nM
- IC50 (second compound 1 µM): 17 nM
- IC50 (second compound 3.16 µM): 13 nM
- IC50 (second compound 10 µM): 6.84 nM
- viability, T/C [1]: 89.5%
- viability, T/C [2]: 55%
- viability, T/C [3]: 15.1%
- viability, T/C [4]: 12.8%
- viability, T/C [5]: 12.9%
- viability, T/C [6]: 15%
- viability, T/C [7]: 91.8%
- viability, T/C [8]: 63.5%
- viability, T/C [9]: 20.2%
- viability, T/C [10]: 11.3%
- viability, T/C [11]: 12.8%
- viability, T/C [12]: 16.3%
- viability, T/C [13]: 100%
- viability, T/C [14]: 63.4%
- viability, T/C [15]: 19.7%
- viability, T/C [16]: 11.9%
- viability, T/C [17]: 12.4%
- viability, T/C [18]: 17.1%
- viability, T/C [19]: 100%
- viability, T/C [20]: 72.8%
- viability, T/C [21]: 23.5%
- viability, T/C [22]: 10.3%
- viability, T/C [23]: 12.4%
- viability, T/C [24]: 15.3%
- viability, T/C [25]: 90.9%
- viability, T/C [26]: 58.3%
- viability, T/C [27]: 21.7%
- viability, T/C [28]: 9.8%
- viability, T/C [29]: 12.3%
- viability, T/C [30]: 17.4%
- viability, T/C [31]: 82.3%
- viability, T/C [32]: 34.1%
- viability, T/C [33]: 10.5%
- viability, T/C [34]: 10%
- viability, T/C [35]: 13.9%
- viability, T/C [36]: 17.7%

SMILES: CNCc1ccc(-c2[nH]c3cc(F)cc4c3c2CCNC4=O)cc1 + Cc1cccc(N(C)C(=O)C2C(O)CCN2c2nc(C)cc(C(F)(F)F)c2C#N)c1
- IC50 (second compound 0.0316 µM): > 10000 nM
- IC50 (second compound 0.1 µM): > 10000 nM
- IC50 (second compound 0.316 µM): > 10000 nM
- IC50 (second compound 1 µM): > 10000 nM
- IC50 (second compound 3.16 µM): > 10000 nM
- IC50 (second compound 10 µM): 8530 nM
- viability, T/C [3]: 103%
- viability, T/C [4]: 101%
- viability, T/C [5]: 104%
- viability, T/C [6]: 99.5%
- viability, T/C (second compound 0.0316 µM, first compound 3.16 µM): 89.7%
- viability, T/C (second compound 0.0316 µM, first compound 10 µM): 82.9%
- viability, T/C [9]: 105%
- viability, T/C [10]: 101%
- viability, T/C [11]: 100%
- viability, T/C [12]: 107%
- viability, T/C (second compound 0.1 µM, first compound 3.16 µM): 89.5%
- viability, T/C (second compound 0.1 µM, first compound 10 µM): 90%
- viability, T/C [15]: 110%
- viability, T/C [16]: 105%
- viability, T/C [17]: 96.3%
- viability, T/C [18]: 97.4%
- viability, T/C (second compound 0.316 µM, first compound 3.16 µM): 92.3%
- viability, T/C (second compound 0.316 µM, first compound 10 µM): 86.7%
- viability, T/C [21]: 110%
- viability, T/C [22]: 100%
- viability, T/C [23]: 108%
- viability, T/C [24]: 90.8%
- viability, T/C (second compound 1 µM, first compound 3.16 µM): 94.6%
- viability, T/C (second compound 1 µM, first compound 10 µM): 90.6%
- viability, T/C [27]: 105%
- viability, T/C [28]: 104%
- viability, T/C [29]: 97%
- viability, T/C [30]: 90.8%
- viability, T/C (second compound 3.16 µM, first compound 3.16 µM): 97.7%
- viability, T/C (second compound 3.16 µM, first compound 10 µM): 82.8%
- viability, T/C [33]: 105%
- viability, T/C [34]: 101%
- viability, T/C [35]: 106%
- viability, T/C [36]: 87.8%
- viability, T/C (second compound 10 µM, first compound 3.16 µM): 84.7%
- viability, T/C (second compound 10 µM, first compound 10 µM): 44.1%

SMILES: COc1cccc(OCCCN)c1-c1cc(Nc2cnc(C#N)cn2)n[nH]1 + Cc1cccc(N(C)C(=O)C2C(O)CCN2c2nc(C)cc(C(F)(F)F)c2C#N)c1
- IC50 (second compound 0.0316 µM): 603 nM
- IC50 (second compound 0.1 µM): 585 nM
- IC50 (second compound 0.316 µM): 610 nM
- IC50 (second compound 1 µM): 599 nM
- IC50 (second compound 3.16 µM): 436 nM
- IC50 (second compound 10 µM): 140 nM
- viability, T/C [1]: 107%
- viability, T/C [2]: 107%
- viability, T/C [3]: 103%
- viability, T/C [4]: 104%
- viability, T/C [5]: 89%
- viability, T/C [6]: 19.8%
- viability, T/C [7]: 104%
- viability, T/C [8]: 104%
- viability, T/C [9]: 103%
- viability, T/C [10]: 97.7%
- viability, T/C [11]: 91.3%
- viability, T/C [12]: 14.5%
- viability, T/C [13]: 102%
- viability, T/C [14]: 101%
- viability, T/C [15]: 101%
- viability, T/C [16]: 98%
- viability, T/C [17]: 93.5%
- viability, T/C [18]: 17.2%
- viability, T/C [19]: 102%
- viability, T/C [20]: 98.8%
- viability, T/C [21]: 103%
- viability, T/C [22]: 98%
- viability, T/C [23]: 92.4%
- viability, T/C [24]: 16%
- viability, T/C [25]: 103%
- viability, T/C [26]: 106%
- viability, T/C [27]: 101%
- viability, T/C [28]: 99.5%
- viability, T/C [29]: 65.1%
- viability, T/C [30]: 10.7%
- viability, T/C [31]: 99.2%
- viability, T/C [32]: 101%
- viability, T/C [33]: 94.3%
- viability, T/C [34]: 65.5%
- viability, T/C [35]: 13.2%
- viability, T/C [36]: 9.72%
